Experimental data published in patent publication US20240398783A1, “Compounds and Pharmaceutical Compositions Comprising Inhibitors of Amyloid Peptide Interactions with Glycosaminoglycans, Methods of Treatment and Use Thereof” (Gismo Therapeutics, Inc., priority 2021, published 2024).
Counter-ions that a name gives are not always drawn. Like-named read-outs stand apart in the source and are kept apart here.

Tests used:
[1] = target: TDP-43 binding to heparin (HS-GAG) (Homo sapiens, UniProt Q13148); experiment: Inhibition of TDP-43 binding to immobilized heparin-BSA (ELISA); parameters: species or system porcine; conditions: for IC50: TDP-43, heparin-BSA; for inhibition at 30 µM: read-out: TDP43/Heparin Activity (% inhibition class)
Experimental: (§1) Porcine intestinal mucosa heparin conjugated to Bovine Serum Albumin (Heparin-BSA) was prepared as described (Najjam, S. et al. 1997, Cytokine 12, 1013-1022). Heparin is a sulfated HS-GAG and is commonly used as a HS-GAG in biochemical and binding assays (Lindahl, U. and Kjellen, L. (2013) ibid). Heparin-BSA at 0.01 mg/ml in Phosphate Buffered Saline (PBS; pH 7.4) was added to a 96 well polystyrene ELISA plate (NUNC Cat. No. 449824; 100 μl per well) and incubated Over Night (ON) at 4 degrees Celsius. For negative controls, ELISA plates were coated with BSA instead of Heparin-BSA, using the same procedure. Following the incubation, the plate was washed consecutively, by immersion, with de-ionized water and PBS (pH 7.4). The ELISA plate was then blocked with nonfat milk (2%, 200 μl per well) for 2 hours at Room Temperature (RT) with gentle shaking. Following blocking, the plate was washed with de-ionized water then PBS (pH 7.4). GBAPs were dissolved and diluted in PBS (pH 6.5, supplemented with 0.1% BSA) at desired concentrations, added to the ELISA plates containing immobilized Heparin-BSA (100 μl per well) and incubated for 2 hours at RT with gentle shaking. Following incubation, the plate was washed with de-ionized water and three times with PBS (pH 6.5) plus Tween. Bound GBAP was detected by a monoclonal antibody specific for that GBAP, followed by incubation with secondary antibody conjugated to horseradish peroxidase (HRP). Antibody was diluted in PBS (pH 6.5 supplemented with 1% BSA). Following each incubation with antibody, the plate was washed with de-ionized water and three times with PBS (pH 6.5) wash buffer containing 0.1% Tween. The peroxidase substrate chromogen, TMB (Dako Cat. No. S1599) was added (100 μl per well) to the ELISA plate and incubated at room temperature. After 5 minutes ELISA Stop Solution (hydrochloric acid 1N, sulfuric acid 3N) was added (100 μl per well) to stop the peroxidase catalyzed colorimetric reaction. The Optical Density of the samples was measured at 450 nm using an ELISA plate reader (BioTek Synergy H1). Following color development, the % inhibition compared to control (BSA-coated plates) was determined. IC-50s were calculated using GraphPad Prism software.
The assay was performed as described in Example 43, with the following modifications.
Following to coating the plates with Heparin-BSA, plates were washed as described. The compounds were dissolved in DMSO at 10 mM final concentration and further diluted prior to assay. DMSO concentration in the screening well was up to 2%. Individual compounds were co-incubated with TDP-43 on plates containing immobilized heparin. TDP43 from R&D System (Cat. No. AP-190) was quickly frozen and kept in aliquots at −80 degrees Celsius. TDP-43 dissolved in PBS (pH 6.5, supplemented with BSA, 0.1%) was added to the ELISA plate (100 μl per well) and incubated for 2 hours at RT with gentle shaking. Following the incubation, the plate was washed with de-ionized water and three times with PBS (pH 6.5) plus Tween. Bound TDP-43 was detected by Anti-TDP43 Monoclonal Antibody (R&D System Cat. No. MAB7778), followed by secondary anti-IgG antibody conjugated to HRP (R&D System, Cat. No. HAF007). Following to color development with TMB, as described in Example 43, the Optical Density of the samples was measured at 450 nm using an ELISA plate reader. Following color development, the % inhibition compared to control (no compound, DMSO control) for every compound was determined.
As described in Example 43, Heparin in the form of Heparin-BSA conjugate is used as a source of HS-GAG. For each compound IC-50 value in TDP-43—heparin-BSA binding assay is shown in μM (micromolar). In some cases IC-50 was not measured and % inhibition at 30 μM compound concentration is shown instead. […] All assays were done on 96-well plates in duplicates and experiments were repeated at least twice. […]

[2] = target: T1, Amyloid-beta(1-42) oligomer binding to heparin (HS-GAG) (Homo sapiens, UniProt P05067); experiment: Inhibition of Amyloid-beta(1-42) oligomer binding to immobilized heparin-BSA (ELISA); parameters: species or system porcine; conditions: Abeta(1-42) oligomers; for IC50: co-incubation on heparin-BSA plates, read-out: Abeta42/Heparin Activity (IC-50); for inhibition at 30 µM: 30 μM compound, heparin-BSA, read-out: Abeta42/Heparin Activity (% inhibition class)
T1 construct: Beta-amyloid (1-42) was purchased from rPeptide (Cat. No. A1163); purchased rPeptide A1163
Experimental: as §1
The assay was performed as described in Example 43, with the following modifications. Following to coating the plates with Heparin-BSA, plates were washed as described. The compounds were dissolved in DMSO at 10 mM final concentration and further diluted prior to assay. DMSO concentration in the screening well was up to 2%. Individual compounds were co-incubated with Beta-amyloid peptides on plates containing immobilized heparin. Beta-amyloid (1-42) was purchased from rPeptide (Cat. No. A1163) and used to prepare oligomers according to Stine et al., 2003 (J Biol Chem. 278(13):11612-22) as follows. 1,1,1,3,3,3-Hexafluoro-2-propanol- (HFIP; Sigma Cat. No. 105228)-treated Beta amyloid (1-42) was dissolved in dry DMSO (Sigma Cat. No. D2650) to 5 mM concentration. Dissolved Beta amyloid (1-42) was then diluted to 100 μM in ice-cold cell culture medium (phenol red-free Ham's F-12; Caisson Labs, Cat. No. HFL05), followed immediately by vortexing for 30 seconds, and incubating at 4 degrees Celsius for 24 h. Resulting Beta amyloid (1-42) oligomers were centrifuged at 12,000 rpm for 10 min at 4 degree Celsius to remove aggregates. Oligomers were then quickly frozen and kept in aliquots at −80 degrees Celsius. Beta-amyloid (1-40) from rPeptide (Cat No. A1153) was dissolved in DMSO, quickly frozen and kept in aliquots at −80 degrees Celsius. Beta-amyloid (1-42) oligomers or Beta-amyloid (1-40) diluted in PBS (pH 6.5, supplemented with BSA, 0.1%) were added to the ELISA plate (100 μl per well) and incubated for 2 hours at RT with gentle shaking. Following the incubation, the plate was washed with de-ionized water and three times with PBS (pH 6.5) plus Tween. […]

TDP-43 binding to heparin (HS-GAG), sequence (Q13148 whole entry): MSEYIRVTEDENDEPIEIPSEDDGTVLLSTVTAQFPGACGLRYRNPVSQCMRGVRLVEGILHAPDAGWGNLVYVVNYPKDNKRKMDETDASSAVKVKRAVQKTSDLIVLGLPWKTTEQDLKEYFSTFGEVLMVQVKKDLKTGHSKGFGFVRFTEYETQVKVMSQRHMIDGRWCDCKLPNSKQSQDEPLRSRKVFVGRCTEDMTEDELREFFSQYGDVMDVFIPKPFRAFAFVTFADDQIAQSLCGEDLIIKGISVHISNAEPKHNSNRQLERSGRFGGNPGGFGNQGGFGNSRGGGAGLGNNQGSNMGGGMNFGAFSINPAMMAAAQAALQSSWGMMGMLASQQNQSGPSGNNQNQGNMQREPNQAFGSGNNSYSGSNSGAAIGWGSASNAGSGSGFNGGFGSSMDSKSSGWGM
T1 sequence (P05067 672-713): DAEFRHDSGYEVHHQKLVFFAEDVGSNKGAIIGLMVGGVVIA

| IC50 ([1]; read-out: TDP43/Heparin Activity (IC-50)) [µM] | SMILES | IC50 ([1]; TDP43/Heparin Activity (IC-50)) [µM] | IC50 [2] [µM] | inhibition at 30 µM [1] [%] | inhibition at 30 µM [2] [%] |
| --- | --- | --- | --- | --- | --- |
|  | Cc1ncn(-c2ncc(Nc3ncnc4cc(Cl)ccc34)cc2O)c1C [Compound 40, 5-((7-chloroquinazolin-4-yl)amino)-2-(4,5-dimethyl-1H-imidazol-1-yl)pyridin-3-ol phosphoric acid salt] | 7.42 | 8.65 |  |  |
| 4.25 | Clc1ccc2c(Nc3ccc(-n4ccnc4)nc3)ncnc2c1 [Compound 41, N-(6-(1H-imidazol-1-yl)pyridin-3-yl)-7-chloroquinazolin-4-amine] |  | 72.4 |  |  |
|  | CCN(CC)Cc1cccc(Nc2ccnc3cc(Cl)ccc23)c1 [Compound 42, 7-chloro-N-(3-((diethylamino)methyl)phenyl)quinolin-4-amine] |  |  | < 30 | < 30 |
|  | C[n+]1ccn(-c2ccc(Nc3ncnc4cc(Cl)ccc34)cn2)c1 [Compound 43, 1-(5-((7-chloroquinazolin-4-yl)amino)pyridin-2-yl)-3-methyl-1H-imidazol-3-ium iodide phosphoric acid salt] |  |  | < 30 | < 30 |
|  | Clc1ccc2c(Nc3ccc(-n4cncn4)nc3)ccnc2c1 [Compound 44, N-(6-(1H-1,2,4-triazol-1-yl)pyridin-3-yl)-7-chloroquinolin-4-amine] | 6.54 | 35.7 |  |  |
|  | CN(C)Cc1cc(Nc2ccnc3cc(Cl)ccc23)ccn1 [Compound 45, 7-chloro-N-(2-((dimethylamino)methyl)pyridin-4-yl)quinolin-4-amine] |  |  | < 30 | < 30 |
